Measurements reported in the kinase profiling compilation of Christmann-Franck et al. (2016).

Assays:
Assay in all cases: radiometric filter-binding kinase assay, Kinase HotSpot
Details in all cases: compound 0.5 µM; ATP 10 µM
PRKACA (human) = PRKACA (human) (UniProt P17612)
CDK4 CCND1 (human) = CDK4 CCND1 (human) (UniProt P24385+P11802)
TSSK1B (human) = TSSK1B (human) (UniProt Q9BXA7)
PRKACG (human) = PRKACG (human) (UniProt P22612)
NTRK1 (human) = NTRK1 (human) (UniProt P04629)
IKBKE (human) = IKBKE (human) (UniProt Q14164)
EPHB4 (human) = EPHB4 (human) (UniProt P54760)
CSNK2A2 (human) = CSNK2A2 (human) (UniProt P19784)
EPHA7 (human) = EPHA7 (human) (UniProt Q15375)
MYO3B (human) = MYO3B (human) (UniProt Q8WXR4)
PIM1 (human) = PIM1 (human) (UniProt P11309)
CDK3 CCNE1 (human) = CDK3 CCNE1 (human) (UniProt Q00526+P24864)
WNK3 (human) = WNK3 (human) (UniProt Q9BYP7)
PRKCE (human) = PRKCE (human) (UniProt Q02156)
WEE1 (human) = WEE1 (human) (UniProt P30291)
[1] = tested on: MKNK1 (human), Q9BUB5 [T385D; 165-205 del]
PTK6 (human) = PTK6 (human) (UniProt Q13882)
ULK3 (human) = ULK3 (human) (UniProt Q6PHR2)
MAP3K7 TAB1 (human) = MAP3K7 TAB1 (human) (UniProt O43318+Q15750)
CSF1R (human) = CSF1R (human) (UniProt P07333)
STK38 (human) = STK38 (human) (UniProt Q15208)
IRAK4 (human) = IRAK4 (human) (UniProt Q9NWZ3)
PAK2 (human) = PAK2 (human) (UniProt Q13177)
LRRK2 (human) = LRRK2 (human) (UniProt Q5S007)
STK16 (human) = STK16 (human) (UniProt O75716)
PRKD3 (human) = PRKD3 (human) (UniProt O94806)
NEK9 (human) = NEK9 (human) (UniProt Q8TD19)
EPHB3 (human) = EPHB3 (human) (UniProt P54753)
STK3 (human) = STK3 (human) (UniProt Q13188)
ULK2 (human) = ULK2 (human) (UniProt Q8IYT8)
FLT3 (human) = FLT3 (human) (UniProt P36888)
PKN2 (human) = PKN2 (human) (UniProt Q16513)
CHEK1 (human) = CHEK1 (human) (UniProt O14757)
LTK (human) = LTK (human) (UniProt P29376)
AKT2 (human) = AKT2 (human) (UniProt P31751)
MAPK9 (human) = MAPK9 (human) (UniProt P45984)
PHKG2 (human) = PHKG2 (human) (UniProt P15735)
EPHA8 (human) = EPHA8 (human) (UniProt P29322)
CDK9 CCNK (human) = CDK9 CCNK (human) (UniProt O75909+P50750)
NEK1 (human) = NEK1 (human) (UniProt Q96PY6)
CAMK4 (human) = CAMK4 (human) (UniProt Q16566)
CSNK1G1 (human) = CSNK1G1 (human) (UniProt Q9HCP0)
Chain of CSNK1G1 (human) (Q9HCP0 whole entry, looked up): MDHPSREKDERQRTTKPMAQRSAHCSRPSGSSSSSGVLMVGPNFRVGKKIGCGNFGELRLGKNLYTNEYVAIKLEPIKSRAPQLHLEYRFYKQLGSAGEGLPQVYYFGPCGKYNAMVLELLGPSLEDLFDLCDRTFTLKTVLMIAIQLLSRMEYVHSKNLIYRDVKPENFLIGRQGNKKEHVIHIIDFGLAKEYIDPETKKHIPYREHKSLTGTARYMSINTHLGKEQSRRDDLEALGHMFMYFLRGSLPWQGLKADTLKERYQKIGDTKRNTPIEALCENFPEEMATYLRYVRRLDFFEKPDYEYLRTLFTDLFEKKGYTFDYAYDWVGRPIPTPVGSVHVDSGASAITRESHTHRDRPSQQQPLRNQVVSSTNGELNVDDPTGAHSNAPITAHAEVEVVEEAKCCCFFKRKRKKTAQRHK

Chain of EPHB3 (human) (P54753 whole entry, looked up): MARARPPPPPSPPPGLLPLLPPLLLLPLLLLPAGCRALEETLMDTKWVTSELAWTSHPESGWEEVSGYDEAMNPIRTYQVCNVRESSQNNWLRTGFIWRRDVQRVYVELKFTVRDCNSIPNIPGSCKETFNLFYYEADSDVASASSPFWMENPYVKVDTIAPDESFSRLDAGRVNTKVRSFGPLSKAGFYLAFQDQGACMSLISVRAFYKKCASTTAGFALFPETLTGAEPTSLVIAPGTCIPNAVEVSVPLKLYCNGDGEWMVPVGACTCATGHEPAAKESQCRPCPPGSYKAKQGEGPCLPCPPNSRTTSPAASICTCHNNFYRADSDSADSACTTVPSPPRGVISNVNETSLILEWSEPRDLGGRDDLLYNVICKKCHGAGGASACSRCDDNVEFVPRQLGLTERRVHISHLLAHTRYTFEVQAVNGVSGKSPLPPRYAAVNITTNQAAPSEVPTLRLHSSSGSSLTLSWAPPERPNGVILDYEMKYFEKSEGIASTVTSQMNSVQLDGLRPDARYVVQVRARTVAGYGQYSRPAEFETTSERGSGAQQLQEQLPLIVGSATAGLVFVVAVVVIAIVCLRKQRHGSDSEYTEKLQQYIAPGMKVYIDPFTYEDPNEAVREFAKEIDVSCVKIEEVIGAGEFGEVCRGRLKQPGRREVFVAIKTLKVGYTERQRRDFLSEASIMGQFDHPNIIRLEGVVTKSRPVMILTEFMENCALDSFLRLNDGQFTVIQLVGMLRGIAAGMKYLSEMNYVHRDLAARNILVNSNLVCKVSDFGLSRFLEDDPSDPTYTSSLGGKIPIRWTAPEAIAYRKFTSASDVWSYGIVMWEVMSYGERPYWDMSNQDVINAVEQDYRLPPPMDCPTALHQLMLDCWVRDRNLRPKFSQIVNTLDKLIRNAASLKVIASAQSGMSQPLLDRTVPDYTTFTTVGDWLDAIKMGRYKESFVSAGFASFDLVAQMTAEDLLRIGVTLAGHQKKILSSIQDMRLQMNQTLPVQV
Chain of CHEK1 (human) (O14757 whole entry, looked up): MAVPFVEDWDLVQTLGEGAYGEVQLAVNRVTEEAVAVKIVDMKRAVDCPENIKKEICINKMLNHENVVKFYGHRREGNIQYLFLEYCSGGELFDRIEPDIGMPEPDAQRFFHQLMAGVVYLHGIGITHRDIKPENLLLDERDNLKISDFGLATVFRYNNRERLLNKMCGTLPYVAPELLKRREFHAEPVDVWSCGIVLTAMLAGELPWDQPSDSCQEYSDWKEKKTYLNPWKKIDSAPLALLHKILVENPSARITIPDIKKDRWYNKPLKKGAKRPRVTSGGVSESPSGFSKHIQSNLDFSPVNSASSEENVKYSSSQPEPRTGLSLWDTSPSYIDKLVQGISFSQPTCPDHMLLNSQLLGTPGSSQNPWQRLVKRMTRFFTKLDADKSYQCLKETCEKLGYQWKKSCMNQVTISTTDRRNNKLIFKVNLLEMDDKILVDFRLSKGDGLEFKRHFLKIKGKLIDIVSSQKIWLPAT
Chain of NEK9 (human) (Q8TD19 whole entry, looked up): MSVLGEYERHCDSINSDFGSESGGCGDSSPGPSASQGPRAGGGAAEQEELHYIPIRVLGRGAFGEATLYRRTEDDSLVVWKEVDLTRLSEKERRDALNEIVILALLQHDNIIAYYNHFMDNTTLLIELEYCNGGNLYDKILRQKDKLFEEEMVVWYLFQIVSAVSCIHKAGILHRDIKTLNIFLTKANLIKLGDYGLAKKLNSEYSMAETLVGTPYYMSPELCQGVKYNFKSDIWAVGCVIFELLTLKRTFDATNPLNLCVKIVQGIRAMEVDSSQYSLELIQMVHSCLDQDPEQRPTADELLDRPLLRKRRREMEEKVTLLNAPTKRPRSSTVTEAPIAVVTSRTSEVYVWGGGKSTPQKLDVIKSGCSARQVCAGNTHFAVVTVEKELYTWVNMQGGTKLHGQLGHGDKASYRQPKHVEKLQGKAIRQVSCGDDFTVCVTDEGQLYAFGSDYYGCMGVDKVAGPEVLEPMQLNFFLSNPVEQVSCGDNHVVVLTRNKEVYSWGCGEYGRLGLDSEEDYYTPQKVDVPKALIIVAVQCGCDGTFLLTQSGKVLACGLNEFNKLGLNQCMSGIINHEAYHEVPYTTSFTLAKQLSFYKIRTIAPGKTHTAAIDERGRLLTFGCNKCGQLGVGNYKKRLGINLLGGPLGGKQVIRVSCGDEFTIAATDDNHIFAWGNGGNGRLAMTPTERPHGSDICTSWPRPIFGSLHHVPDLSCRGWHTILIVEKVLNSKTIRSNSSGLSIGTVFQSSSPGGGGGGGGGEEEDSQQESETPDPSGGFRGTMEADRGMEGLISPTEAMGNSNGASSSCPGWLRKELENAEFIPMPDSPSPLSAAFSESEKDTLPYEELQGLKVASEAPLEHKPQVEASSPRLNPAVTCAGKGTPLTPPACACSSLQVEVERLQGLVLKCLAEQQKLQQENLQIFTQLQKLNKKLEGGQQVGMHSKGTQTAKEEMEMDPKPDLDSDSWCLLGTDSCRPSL
Chain of FLT3 (human) (P36888 whole entry, looked up): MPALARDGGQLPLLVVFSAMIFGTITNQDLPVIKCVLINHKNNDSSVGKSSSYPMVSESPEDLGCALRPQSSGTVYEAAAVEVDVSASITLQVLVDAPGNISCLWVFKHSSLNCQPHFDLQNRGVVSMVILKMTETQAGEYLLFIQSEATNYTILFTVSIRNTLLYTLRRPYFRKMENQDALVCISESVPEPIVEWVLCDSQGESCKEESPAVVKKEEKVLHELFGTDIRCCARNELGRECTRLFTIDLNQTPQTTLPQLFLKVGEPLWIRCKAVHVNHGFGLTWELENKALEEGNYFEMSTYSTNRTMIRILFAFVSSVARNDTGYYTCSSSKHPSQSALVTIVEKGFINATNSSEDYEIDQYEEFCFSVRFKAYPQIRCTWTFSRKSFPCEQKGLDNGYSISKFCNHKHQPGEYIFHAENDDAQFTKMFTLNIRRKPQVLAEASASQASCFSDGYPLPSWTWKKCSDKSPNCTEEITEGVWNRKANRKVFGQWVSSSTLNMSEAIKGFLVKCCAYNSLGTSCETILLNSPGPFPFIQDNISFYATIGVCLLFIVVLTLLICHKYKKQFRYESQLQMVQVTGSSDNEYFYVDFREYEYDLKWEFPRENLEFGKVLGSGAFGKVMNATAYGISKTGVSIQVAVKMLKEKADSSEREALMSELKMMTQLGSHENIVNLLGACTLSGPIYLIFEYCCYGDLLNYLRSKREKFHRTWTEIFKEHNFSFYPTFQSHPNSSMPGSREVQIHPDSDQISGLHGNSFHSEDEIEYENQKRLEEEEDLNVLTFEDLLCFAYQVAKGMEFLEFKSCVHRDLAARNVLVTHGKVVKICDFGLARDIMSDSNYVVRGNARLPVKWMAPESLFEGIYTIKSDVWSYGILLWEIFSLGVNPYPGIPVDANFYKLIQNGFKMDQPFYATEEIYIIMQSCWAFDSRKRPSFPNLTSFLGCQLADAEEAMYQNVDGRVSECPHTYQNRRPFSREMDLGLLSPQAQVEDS
Chain of MKNK1 (human), Q9BUB5 [T385D; 165-205 del] (Q9BUB5 whole entry, looked up, stated change not applied): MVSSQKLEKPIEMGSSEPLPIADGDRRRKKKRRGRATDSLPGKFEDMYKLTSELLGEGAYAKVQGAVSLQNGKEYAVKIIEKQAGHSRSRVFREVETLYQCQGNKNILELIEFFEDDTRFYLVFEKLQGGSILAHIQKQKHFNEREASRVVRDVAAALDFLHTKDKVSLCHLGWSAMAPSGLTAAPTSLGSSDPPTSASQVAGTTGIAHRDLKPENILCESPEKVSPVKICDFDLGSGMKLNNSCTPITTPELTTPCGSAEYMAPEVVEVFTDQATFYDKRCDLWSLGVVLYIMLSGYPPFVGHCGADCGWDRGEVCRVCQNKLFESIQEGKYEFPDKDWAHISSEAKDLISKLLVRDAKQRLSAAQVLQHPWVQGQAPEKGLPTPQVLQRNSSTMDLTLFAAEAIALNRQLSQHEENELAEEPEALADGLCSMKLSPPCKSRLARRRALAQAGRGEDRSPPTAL
Chain of CSNK2A2 (human) (P19784 whole entry, looked up): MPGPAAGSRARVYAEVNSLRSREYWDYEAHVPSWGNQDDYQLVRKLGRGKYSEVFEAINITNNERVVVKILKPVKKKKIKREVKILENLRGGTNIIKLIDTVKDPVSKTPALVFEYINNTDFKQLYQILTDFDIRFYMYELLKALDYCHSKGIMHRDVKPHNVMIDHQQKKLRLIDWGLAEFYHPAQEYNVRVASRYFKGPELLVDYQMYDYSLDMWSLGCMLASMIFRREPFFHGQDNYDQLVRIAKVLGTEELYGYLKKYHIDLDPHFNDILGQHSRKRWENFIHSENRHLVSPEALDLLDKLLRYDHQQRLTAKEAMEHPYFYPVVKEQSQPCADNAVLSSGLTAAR
Chain of PRKACG (human) (P22612 whole entry, looked up): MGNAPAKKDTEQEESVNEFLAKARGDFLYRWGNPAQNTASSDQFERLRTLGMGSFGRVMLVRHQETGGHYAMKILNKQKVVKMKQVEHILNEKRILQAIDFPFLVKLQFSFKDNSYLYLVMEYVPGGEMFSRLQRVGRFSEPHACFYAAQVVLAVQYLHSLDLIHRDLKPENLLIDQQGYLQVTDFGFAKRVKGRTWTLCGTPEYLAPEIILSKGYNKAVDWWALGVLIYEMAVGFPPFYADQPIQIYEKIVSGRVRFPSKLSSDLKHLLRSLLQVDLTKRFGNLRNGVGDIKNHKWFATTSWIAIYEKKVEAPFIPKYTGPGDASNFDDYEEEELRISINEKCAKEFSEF

## COc1ccc(S(=O)(=O)N(CCO)c2ccccc2CN(C)C/C=C/c2ccc(Cl)cc2)cc1
PRKACA (human)
  residual activity: 104%
CDK4 CCND1 (human)
  residual activity: 94.6%
TSSK1B (human)
  residual activity: 103%
PRKACG (human)
  residual activity: 104%
NTRK1 (human)
  residual activity: 110%
IKBKE (human)
  residual activity: 93.7%
EPHB4 (human)
  residual activity: 104%
CSNK2A2 (human)
  residual activity: 93.7%
EPHA7 (human)
  residual activity: 98.9%
MYO3B (human)
  residual activity: 90.2%
PIM1 (human)
  residual activity: 104%
CDK3 CCNE1 (human)
  residual activity: 103%
WNK3 (human)
  residual activity: 99.4%
PRKCE (human)
  residual activity: 97.2%
WEE1 (human)
  residual activity: 96%
[1]
  residual activity: 103%
PTK6 (human)
  residual activity: 89.3%
ULK3 (human)
  residual activity: 106%
MAP3K7 TAB1 (human)
  residual activity: 94.7%
CSF1R (human)
  residual activity: 103%
STK38 (human)
  residual activity: 98.3%
IRAK4 (human)
  residual activity: 97.2%
PAK2 (human)
  residual activity: 101%
LRRK2 (human)
  residual activity: 101%
STK16 (human)
  residual activity: 102%
PRKD3 (human)
  residual activity: 97.1%
NEK9 (human)
  residual activity: 91.9%
EPHB3 (human)
  residual activity: 92.8%
STK3 (human)
  residual activity: 101%
ULK2 (human)
  residual activity: 102%
FLT3 (human)
  residual activity: 98.4%
PKN2 (human)
  residual activity: 101%
CHEK1 (human)
  residual activity: 93.5%
LTK (human)
  residual activity: 97.9%
AKT2 (human)
  residual activity: 106%
MAPK9 (human)
  residual activity: 85.5%
PHKG2 (human)
  residual activity: 103%
EPHA8 (human)
  residual activity: 100%
CDK9 CCNK (human)
  residual activity: 99.1%
NEK1 (human)
  residual activity: 104%
CAMK4 (human)
  residual activity: 97.5%
CSNK1G1 (human)
  residual activity: 105%

## Cc1nc(-c2ccccc2)c(-c2ccncc2)o1
PRKACA (human)
  residual activity: 98.9%
CDK4 CCND1 (human)
  residual activity: 114%
TSSK1B (human)
  residual activity: 108%
PRKACG (human)
  residual activity: 108%
NTRK1 (human)
  residual activity: 94.3%
IKBKE (human)
  residual activity: 102%
EPHB4 (human)
  residual activity: 84.8%
CSNK2A2 (human)
  residual activity: 89.8%
EPHA7 (human)
  residual activity: 91.5%
MYO3B (human)
  residual activity: 108%
PIM1 (human)
  residual activity: 105%
CDK3 CCNE1 (human)
  residual activity: 98.1%
WNK3 (human)
  residual activity: 106%
PRKCE (human)
  residual activity: 103%
WEE1 (human)
  residual activity: 91.9%
[1]
  residual activity: 123%
PTK6 (human)
  residual activity: 86%
ULK3 (human)
  residual activity: 94.3%
MAP3K7 TAB1 (human)
  residual activity: 93.6%
CSF1R (human)
  residual activity: 104%
STK38 (human)
  residual activity: 97.3%
IRAK4 (human)
  residual activity: 107%
PAK2 (human)
  residual activity: 82.3%
LRRK2 (human)
  residual activity: 96.8%
STK16 (human)
  residual activity: 109%
PRKD3 (human)
  residual activity: 94.3%
NEK9 (human)
  residual activity: 97.2%
EPHB3 (human)
  residual activity: 99.2%
STK3 (human)
  residual activity: 104%
ULK2 (human)
  residual activity: 102%
FLT3 (human)
  residual activity: 95.2%
PKN2 (human)
  residual activity: 93.4%
CHEK1 (human)
  residual activity: 106%
LTK (human)
  residual activity: 107%
AKT2 (human)
  residual activity: 96.7%
MAPK9 (human)
  residual activity: 98.2%
PHKG2 (human)
  residual activity: 97.6%
EPHA8 (human)
  residual activity: 78.8%
CDK9 CCNK (human)
  residual activity: 101%
NEK1 (human)
  residual activity: 103%
CAMK4 (human)
  residual activity: 97.2%
CSNK1G1 (human)
  residual activity: 91.1%

## c1ccc2c(-c3ccncc3)c[nH]c2c1
PRKACA (human)
  residual activity: 91.6%
CDK4 CCND1 (human)
  residual activity: 112%
TSSK1B (human)
  residual activity: 103%
PRKACG (human)
  residual activity: 107%
NTRK1 (human)
  residual activity: 97%
IKBKE (human)
  residual activity: 96.4%
EPHB4 (human)
  residual activity: 89.7%
CSNK2A2 (human)
  residual activity: 94.9%
EPHA7 (human)
  residual activity: 98.2%
MYO3B (human)
  residual activity: 96.4%
PIM1 (human)
  residual activity: 93.5%
CDK3 CCNE1 (human)
  residual activity: 98.2%
WNK3 (human)
  residual activity: 100%
PRKCE (human)
  residual activity: 81.5%
WEE1 (human)
  residual activity: 89.3%
[1]
  residual activity: 75.5%
PTK6 (human)
  residual activity: 85.5%
ULK3 (human)
  residual activity: 83%
MAP3K7 TAB1 (human)
  residual activity: 95.5%
CSF1R (human)
  residual activity: 101%
STK38 (human)
  residual activity: 109%
IRAK4 (human)
  residual activity: 109%
PAK2 (human)
  residual activity: 84%
LRRK2 (human)
  residual activity: 92.8%
STK16 (human)
  residual activity: 110%
PRKD3 (human)
  residual activity: 90.7%
NEK9 (human)
  residual activity: 101%
EPHB3 (human)
  residual activity: 100%
STK3 (human)
  residual activity: 112%
ULK2 (human)
  residual activity: 106%
FLT3 (human)
  residual activity: 91.5%
PKN2 (human)
  residual activity: 80.8%
CHEK1 (human)
  residual activity: 104%
LTK (human)
  residual activity: 103%
AKT2 (human)
  residual activity: 96.4%
MAPK9 (human)
  residual activity: 103%
PHKG2 (human)
  residual activity: 101%
EPHA8 (human)
  residual activity: 101%
CDK9 CCNK (human)
  residual activity: 91.2%
NEK1 (human)
  residual activity: 101%
CAMK4 (human)
  residual activity: 101%
CSNK1G1 (human)
  residual activity: 79.2%
